The nature of series [1]: Plasma drug concentrations and pharmacokinetic analyses. The series is classed as in vivo, human. Conditions: for elimination half-life / mean time to peak concentrations: psilocin glucuronide after 25 mg psilocybin. As to the method: The blood samples were immediately centrifuged, and the plasma was subsequently stored at −80° C. until analysis.
This allows to determine the concentrations of unconjugated psilocin and of psilocin glucuronide which corresponds to the difference between samples that were incubated with and without glucuronidase.

Series [2] relates to healthy subjects. As to the kind of experiment: Subjective effects, visual analog scales (VAS), clinical study. The series is classed as in vivo, human. Particulars: 25 mg psilocybin. As to the method:
(§1) Treatment order was random and counterbalanced.
Study procedures: Subjects took part in a 2-hour screening session, two 9.5-hour test sessions where the psilocybin was administered and a 1-hour end-of-study visit. The subjects were informed about the study both verbally and by the approved written consent form regarding the altered state of consciousness, the study procedures and associated risks. The investigator and the subject both personally signed and dated the consent form as confirmation of consent. Subjects were screened using a semi-structured clinical interview for DSM-IV (Diagnostic and Statistical Manual Version 4) (Wittchen et al., 1997) to exclude those with a personal or family (first-degree relative) axis I major psychiatric disorder (acute or past) or a history of illicit drug dependence. Axis I major psychiatric disorders included also addiction disorders. The sessions were conducted in a calm standard hospital room. Only one research subject and one investigator were present during the test sessions. The test sessions began at 9 AM. The subjects then underwent baseline measurements. […] Psilocybin was administered at 11:00 AM. The outcome measures were repeatedly assessed for 7 hours. The subjects were under constant supervision by an investigator until 6 PM. Thus, the subjects were never alone during the 7 hours after drug administration. The subjects were sent home at 6:30 PM.
Subjective Effects Questionnaire (Visual Analog Scales, VAS): VAS was repeatedly used to assess subjective alterations in consciousness over time. Single scales were presented as 100 mm horizontal lines marked with “not at all” on the left and “extremely” on the right. The following VAS items were used: “any drug effect”, “good drug effect”, “bad drug effect”, “drug liking”, “drug high”, “stimulated”, “fear”, “happy”, “content”, “trust”, “talkative”, “perception of time”, “open”, “concentration”, “speed of thinking”, “feeling close to others”, “wanting to be hugged”, “wanting to hug someone”, “desire to be alone”, “desire to be with others”, and “ego dissolution”. The VASs were presented as 100-mm horizontal lines (0-100%), marked from “not at all” on the left to “extremely” on the right. Some VASs were bidirectional (±50%). Marked from “not at all” on the left (−50), to “normal” in the middle (0), to “extremely” on the right (+50).
The criterion for significance was p<0.05.

Series [3] has as its system healthy subjects. Put plainly: Autonomic measures (blood pressure, heart rate, body temperature, pupil size). Conditions: 25 mg psilocybin, healthy subjects. As to the method:
Study design: A double-blind, cross-over design was used with two conditions. […] 2) Pretreatment with placebo for 14 days with the last administration on the study day and administration of 25 mg psilocybin 2 hours later. Treatment order was random and counterbalanced. Between the 14 days pretreatment and the study day, there were at least 2 days washout until the next pretreatment phase began.
Autonomic measures: Blood pressure, heart rate, and body temperature were recorded at baseline and repeatedly throughout the session. Blood pressure (systolic and diastolic) and heart rate were measured with an automatic oscillometric device. Body temperature was measured with an ear thermometer as previously described in detail (Hysek et al., 2010). Measures were taken before and at 0, 0.25, 0.5, 0.75, 1, 1.5, 2, 2.5, 3, 4, 5, 6 and 7 hours after psilocybin administration.
Data analysis: Peak (Emax and/or Emin) or peak change from baseline (ΔEmax) values were determined for repeated measures. The values were then analyzed using paired T-tests using Statistica 12 software (StatSoft, Tulsa, OK, USA). The criterion for significance was p<0.05.

In series [4] the test system is healthy subjects. Put plainly: Adverse effects (list of complaints) and adverse events. It counts as in vivo, human. As to the method:
as §1
Adverse effects (list of complaints): The list of complaints (LC) consists of 66 items offering a global score measuring physical and general discomfort (Zerssen, 1976). This scale yields a total adverse effects score and reliably measures physical and general discomfort. The LC list was administered 7 hours after administration of the drug with reference to complaints throughout the entire session.

In series [5] the test system is healthy subjects. As to the kind of experiment: QTc time. Conditions: 2.5 hours after psilocybin administration compared with 1 hour before. The series is classed as in vivo, human. The text has this:
Exclusion criteria: Chronic or acute medical condition, including a history of seizures. Current or previous major psychiatric disorder (e.g. psychotic disorders, mania/hypomania, anxiety disorders, and substance abuse). Psychotic disorder in first-degree relatives, not including psychotic disorders secondary to an apparent medical reason, e.g. brain injury, dementia, or lesions of the brain. Illicit substance use (with the exception of cannabis) more than 10 times or any time within the previous two months. History of an angle closure glaucoma. Pregnant or nursing women. Participation in another clinical trial (currently or within the last 30 days). […] A corrected QT time (QTc), calculated by Bazett's formula, of over 450 milliseconds in males and over 470 milliseconds in females. Tobacco smoking (>10 cigarettes/day). Consumption of alcoholic drinks (>10 drinks/week). Bodyweight <45 kg.

Where [6] appears, read: after escitalopram pretreatment.
[7] abbreviates: after psilocybin, after escitalopram pretreatment.
[8] abbreviates: after psilocybin, after placebo pretreatment.

Experimental findings from patent US11801256B2, “Antidepressant-psilocybin co-treatment to assist psychotherapy” (Universitätsspital Basel, priority 2021, dated 2023) are described below.

As to `O=C(O)Cc1c[nH]c2cccc(O)c12` [4-HIAA, 4-hydroxyindole-3-acetic acid], in series [1] (4-HIAA compared to the glucuronide), the “increase in metabolite concentrations over time” value is recorded as “faster”.
`CN(C)CCc1c[nH]c2cccc(O)c12` [psilocin]: the metabolism of psilocin result in series [1] (after 25 mg psilocybin) is “metabolized to approximately similar extents to inactive 4-HIAA and psilocin-glucuronide”. For the same compound, the half-life in series [1] (human, plasma, oral, non-glucuronidated (nonconjugated) psilocin after 25 mg psilocybin, read-out: elimination half-life (converted)) was 2 h. For the same compound, the “mean time to maximal plasma concentration” value in series [1] (non-glucuronidated (nonconjugated) psilocin after 25 mg psilocybin) was 2 h. For the same compound, the “conjugation (glucuronidation) in plasma” value in series [1] (samples analyzed with and without glucuronidase) is given as “A large proportion of psilocin underwent glucuronidation”.
Take `CN(C)CCc1c[nH]c2cccc(O[C@@H]3O[C@H](C(=O)O)[C@@H](O)[C@H](O)[C@H]3O)c12` [psilocin glucuronide]: the elimination half-life in series [1] (setting [6]) worked out at 5.2 h; in series [1] (after escitalopram pretreatment, listed as Glucuronidated psilocin), 4.5 h; in series [1] (after placebo pretreatment) it was 4.5 h; in series [1] (after placebo pretreatment, listed as Glucuronidated psilocin), 4.1 h. Besides, the “mean time to peak concentrations” value in series [1] (setting [6]) is 3.74 h; in series [1] (after placebo pretreatment), 3.8 h; in series [1] (pretreatments not separated), 3.2 to 3.4 h.
In the case of `CN(C)CCc1c[nH]c2cccc(OP(=O)(O)O)c12` [Psilocybin, psilocybin], the bad drug effects result in the series on healthy subjects [2] (healthy subjects) is “only moderate”. Also, the anxiety entry in the series with healthy subjects [2] (healthy subjects (FIG. 6B)) is recorded as “only moderate”. In addition, in the series with healthy subjects [3], the body temperature result is “moderately increased”, the diastolic blood pressure result was “moderately increased”, the heart rate result was “changed only minimally” and the pupil size result is “moderately increased”. In addition, in the series with healthy subjects [3], the rate-pressure product entry is given as “moderately increased” and the systolic blood pressure result is reported as “moderately increased”. The “type and amount of adverse events following psilocybin administration” value with healthy subjects [4] (after escitalopram and placebo pretreatment) is “comparable”. In the series on healthy subjects [4] (setting [7]), the “adverse aftereffects: abdominal bloating” value is “one”, the “adverse aftereffects: flash backs” value is given as “one”, the “adverse aftereffects: headaches” value was “six” and the “adverse aftereffects: lack of energy” value was “one”. For the same compound, in the series on healthy subjects [4] (setting [7]), the “adverse aftereffects: nausea” value is given as “one”. Further, in the series on healthy subjects [4] (setting [8]), the “adverse aftereffects: flash backs” value is “one”, the “adverse aftereffects: headaches” value was “six”, the “adverse aftereffects: nausea” value is “one” and the “adverse aftereffects: vasovagal syncope” value is reported as “one”. Besides, in the series with healthy subjects [5], the QTc times entry is given as “did not increase”.
